Reference: patent US4859584A (priority 1986, dated 1989)
Residues, ends and D or L forms follow the SMILES beside them.

tested on: Yac cells; details: not given

Row | Molecule | Doubling [time] of Yac cells | Effect on cell doubling time (in words)
1 | NCCCS(=O)(=O)O [3-Amino-1-propanesulfonic acid] | 99.6 | –
2 | NC(=O)CNCCS(=O)(=O)O [ACES, 2-[(2-Amino-2-oxoethyl)amino]ethane sulfonic acid] | 1038.4 | –
3 | O=C(O)CN(CCO)CCO [BICINE, N,N-bis(2-hydroxyethyl)glycine] | 57.7 | –
4 | O=S(=O)(O)CCCNC1CCCCC1 [CAPS, 3-(Cyclohexylamino)-1-propanesulfonic acid] | 45.8 | negligible effects on cell doubling time
5 | O=S(=O)(O)CCNC1CCCCC1 [CHES, 2-(N-cyclohexylamino)ethane sulfonic acid] | 51.5 | –
6 | O=S(=O)(O)CC(O)CN(CCO)CCO (centres unmarked) [DIPSO, 3-[N-N-bis(2-hydroxyethyl)amino]-2-hydroxypropane-sulfonic acid] | 36.7 | negligible effects on cell doubling time
7 | O=S(=O)(O)CCCN1CCN(CCO)CC1 [EPPS, N-(2-Hydroxyethyl)piperazine-N-3-propanesulfonic acid] | 32.2 | negligible effects on cell doubling time
8 | N[C@H]1C(O)O[C@H](CO)[C@@H](O)[C@@H]1O (some centres unmarked) [Glucosamine] | 288.4 | –
9 | O=C[C@H](O)[C@@H](O)[C@H](O)[C@H](O)CO [Glucose] | 34.5 | negligible effects on cell doubling time
10 | NCC(=O)NCC(=O)O [Glycylglycine] (H-Gly-Gly-OH) | 66.9 | –
11 | O=S(=O)(O)CC(O)CN1CCN(CCO)CC1 (centres unmarked) [HEPPSO, N-2-hydroxyethylpiperazine-N-2-hydroxypropane-sulfonic acid] | 23.4 | negligible effects on cell doubling time
12 | O=S(=O)(O)CC(O)CN1CCOCC1 (centres unmarked) [MOPSO, 3-(N-morpholino)-2-hydroxypropane-sulfonic acid] | 178.4 | –
13 | OC[C@H]1O[C@@](CO)(O[C@H]2O[C@H](CO)[C@@H](O)[C@H](O)[C@H]2O)[C@@H](O)[C@@H]1O [Sucrose] | 41.0 | negligible effects on cell doubling time
14 | O=S(=O)(O)CCCNC(CO)(CO)CO [TAPS, Tris(hydoxymethyl)-methylaminopropane sulfonic acid] | 32.7 | negligible effects on cell doubling time
15 | O=S(=O)(O)CC(O)CNC(CO)(CO)CO (centres unmarked) [TAPSO, 3-[N-tris(hydroxymethyl)methylamino]-2-hydroxypropanesulfonic acid] | 63.6 | –
16 | Phosphate Buffered Saline | 31.0 | –

tested on: rabbit red cells; details: in vivo

Row | Molecule | Effect on clearance rate of red blood cells | Lifetime of labelled red cells in circulation [days]
17 | CCCCCCCCCCCCCCN1C(=CC=CC=Cc2sc3ccccc3[n+]2CCCCCCCCCCCCCC)Sc2ccccc21 [DiSC14 (5)] | did not affect the clearance rate of red blood cells | 52

tested on: V79 cells; details: not given

Row | Molecule | Cell doubling time / growth of labelled cells
18 | CCCCCCCCCCCCCCN1C(=CC=Cc2oc3ccccc3[n+]2CCCCCCCCCCCCCC)Oc2ccccc21 [DiOC14 (3)] | Cell doubling time was unaffected
